Structures can show the parent of a compound that is named as a salt.

This experiment concerns the target muscarinic receptors. As to the kind of experiment: inhibition of binding of 3H-oxotremorine-M to muscarinic receptors. The conditions noted are these: 3 nM 3H-oxotremorine-M, rat cerebral cortical membranes, pH 7.4, 15 min, 25° C.; read-out: Inhibition of ^3 H-Oxo. The method, then: The affinity of the compounds for the muscarinic receptors was determined using the non-selective agonist ligand, ^3 H-oxotremorine-M. Birdsdall N. J. M., Hulme E. C., and Burgen A. S. V. "The Character of Muscarinic Receptors in Different Regions of the Rat Brain", 207 Proc. Roy. Soc. 1 (London, Series B, 1980). Each compound was tested to determine the affinity of the compound for the muscarinic receptors using the following procedure.
For in vitro binding, male Sprague-Dawley (Harlan Sprague-Dawley, Indianapolis, Ind.) rats weighing from about 100 to about 150 grams each were sacrificed by decapitation. The brains were quickly removed and the cerebral cortex were dissected from the brain. The cerebral cortex tissue was homogenized in 10 volumes of 0.32M sucrose and […] at about 1000×g. The supernatant was centrifuged at about 12,000×g for about 10 minutes and the resulting pellet was resuspended in 20 mM tris-Cl, pH 7.4. The resuspended pellet was centrifuged again for about 10 minutes at about 50,000×g. The resulting homogenate was preincubated for about 10 minutes at about 25° C. and centrifuged again for about 10 minutes at about 50,000×g. The pellet was resuspended at 1 gram of pellet per 3 ml of buffer and frozen at about -80° C. until used.
The inhibition of binding of ^3 H-oxotremorine-M to muscarinic receptors was determined by mixing the compound of the Example, 3 nM ^3 H-oxotremorine-M (about 87 Ci/mmoles, New England Nuclear, Boston Mass.), and cerebral cortical membranes equivalent to about 10 mg wet weight, which is about 100 μg of cortical membrane protein, in about 1 ml total volume of […] tris-Cl buffer, pH 7.4, containing 1 mM MnCl2. The aforementioned homogenates mixture was incubated for about 15 minutes at about 25° C. and then the homogenates were filtered through glass filters (Whatman, GF/C) with vacuum. The filters were washed 3 times with about 2 ml of cold tris-Cl buffer, and placed in scintillation vials containing about 10 ml of scintillation fluid (Ready Protein+, Beckman, Fullerton, Calif.). Radioactivity trapped on the filters was determined by liquid scintillation spectrometry. Nonspecific binding was determined using 1 μM atropine. The concentration of compound required to inhibit specific binding 50% (IC50) was determined using standardized computer assisted calculations (DeLean, A. et al. Am. J. Physiol., 235, (1978)).

As for `CCOc1nsnc1[C@@H]1CN2CCC[C@@H]1C2` (relative stereo) [Compound 19, Exo-6-(3-ethoxy-1,2,5-thiadiazol-4-yl)-1-azabicyclo[3.2.1]octane oxalate], the IC50 was found to be 1.2 nM. `CCCCCCSc1nsnc1[C@@H]1CN2CCC[C@@H]1C2` (relative stereo) [Compound 29, Exo-6-(3-hexylthio-1,2,5-thiadiazol-4-yl)-1-azabicyclo[3.2.1]octane oxalate]: the IC50 was 1.2 nM. With `CCCCSc1nsnc1[C@@H]1CN2CCC[C@@H]1C2` (relative stereo) [Compound 30, Exo-6-(3-butylthio-1,2,5-thiadiazol-4-yl)-1-azabicyclo[3.2.1]octane oxalate], the IC50 amounted to 0.4 nM. The result for `CCCCCSc1nsnc1[C@@H]1CN2CCC[C@@H]1C2` (relative stereo) [Compound 31, Exo-6-(3-pentylthio-1,2,5-thiadiazol-4-yl)-1-azabicyclo[3.2.1]octane oxalate] reads 1.8 nM. For the molecule `CCSc1nsnc1[C@@H]1CN2CCC[C@@H]1C2` (relative stereo) [Compound 32, Exo-6-(3-ethylthio-1,2,5-thiadiazol-4-yl)-1-azabicyclo[3.2.1]octane oxalate], the IC50 was found to be 1.3 nM. As to `CCCSc1nsnc1[C@@H]1CN2CCC[C@@H]1C2` (relative stereo) [Compound 58, Exo-6-(3-propylthio-1,2,5-thiadiazol-4-yl)-1-azabicyclo[3.2.1]octane oxalate], the IC50 amounted to 0.8 nM.

As to `CCCCCOc1nsnc1[C@@H]1CN2CCC[C@@H]1C2` (relative stereo) [Compound 59, Exo-6-(3-pentyloxy-1,2,5-thiadiazol-4-yl)-1-azabicyclo[3.2.1]octane oxalate], the IC50 came out at 1 nM. As for `CSc1nsnc1[C@@H]1CN2CCC[C@@H]1C2` (relative stereo) [Compound 74, Exo-6-(3-methylthio-1,2,5-thiadiazol-4-yl)-1-azabicyclo[3.2.1]octane oxalate], the IC50 was found to be 1.4 nM. With `CC(C)CCCSc1nsnc1[C@@H]1CN2CCC[C@@H]1C2` (relative stereo) [Compound 76, Exo-6-(3-isohexylthio-1,2,5-thiadiazol-4-yl)-1-azabicyclo[3.2.1]octane oxalate], the IC50 was 7.7 nM.

For `CC(C)CCSc1nsnc1[C@@H]1CN2CCC[C@@H]1C2` (relative stereo) [Compound 77, Exo-6-(3-isopentylthio-1,2,5-thiadiazol-4-yl)-1-azabicyclo[3.2.1]octane], the IC50 was 2.7 nM. As to `N#Cc1ccc(CSc2nsnc2[C@@H]2CN3CCC[C@@H]2C3)cc1` (relative stereo) [Compound 82, Exo-6-(3-(4-cyanobenzylthio)-1,2,5-thiadiazol-4-yl)-1-azabicyclo[3.2.1]octane oxalate], the IC50 turned out to be 1.3 nM. Take `CCCOc1nsnc1[C@@H]1CN2CCC[C@@H]1C2` (relative stereo) [Compound 119, Exo-6-(3-propoxy-1,2,5-thiadiazol-4-yl)-1-azabicyclo[3.2.1]octane oxalate]: the IC50 is 0.9 nM. The result for `CCCCOc1nsnc1[C@@H]1CN2CCC[C@@H]1C2` (relative stereo) [Compound 120, Exo-6-(3-butoxy-1,2,5-thiadiazol-4-yl)-1-azabicyclo[3.2.1]octane oxalate] reads 0.9 nM; that for `CCCCCCOc1nsnc1[C@@H]1CN2CCC[C@@H]1C2` (relative stereo) [Compound 122, Exo-6-(3-hexyloxy-1,2,5-thiadiazol-4-yl)-1-azabicyclo[3.2.1]octane oxalate], 2.1 nM; that for `c1ccc(OCCSc2nsnc2[C@@H]2CN3CCC[C@@H]2C3)cc1` (relative stereo) [Compound 133, Exo-6-(3-(2-phenoxyethylthio)-1,2,5-thiadiazol-4-yl)-1-azabicyclo[3.2.1]octane oxalate], 1.3 nM. `CCCCSc1nsnc1C1CN2CCC1CC2` (single isomer, unassigned) [Compound 56, (+) 3-(3-Butylthio-1,2,5-thiadiazol-4-yl)-1-azabicyclo[2.2.2]octane (-)D-tartrate]: the IC50 worked out at 0.4 nM. With `CCOc1nsnc1C1CN2CCC1CC2` (centres unmarked) [Compound 9, 3-(3-Ethoxy-1,2,5-thiadiazol-4-yl)-1-azabicyclo[2.2.2]octane fumarate], the IC50 was 2.1 nM. With `CCCCSc1nsnc1C1CN2CCC1CC2` (centres unmarked) [Compound 13, 3-(3-Butylthio-1,2,5-thiadiazol-4-yl)-1-azabicyclo[2.2.2]octane fumarate], the IC50 was determined as 1.9 nM. Take `CCCCOc1nsnc1C1CN2CCC1CC2` (centres unmarked) [Compound 46, 3-(3-Butoxy-1,2,5-thiadiazol-4-yl)-1-azabicyclo[2.2.2]octane oxalate]: the IC50 amounted to 1.6 nM. The result for `CCSc1nsnc1C1CN2CCC1CC2` (centres unmarked) [Compound 52, 3-(3-Ethylthio-1,2,5-thiadiazol-4-yl)-1-azabicyclo[2.2.2]octane oxalate] reads 1.8 nM. As for `CCCSc1nsnc1C1CN2CCC1CC2` (centres unmarked) [Compound 53, 3-(3-Propylthio-1,2,5-thiadiazol-4-yl)-1-azabicyclo[2.2.2]octane oxalate], the IC50 is 0.9 nM. In the case of `c1ccc(OCCSc2nsnc2C2CN3CCC2CC3)cc1` (centres unmarked) [Compound 102, 3-(3-(2-Phenoxyethylthio)-1,2,5-thiadiazol-4-yl)-1-azabicyclo[2.2.2]octane fumarate], the IC50 amounted to 4.5 nM. With `N#CCSc1nsnc1C1CN2CCC1CC2` (centres unmarked) [Compound 103, 3-(3-Cyanomethylthio-1,2,5-thiadiazol-4-yl)-1-azabicyclo[2.2.2]octane oxalate], the IC50 came to 2.7 nM. Consider `c1csc(CCCSc2nsnc2C2CN3CCC2CC3)c1` (centres unmarked) [Compound 104, 3-(3-(3-(2-Thienyl)propylthio)-1,2,5-thiadiazol-4-yl)-1-azabicyclo[2.2.2]octane fumarate], for which the IC50 was 2.6 nM.

Turning to `Cn1nnnc1SCCCCSc1nsnc1C1CN2CCC1CC2` (centres unmarked) [Compound 106, 3-(3-(1-Methyltetrazol-5-ylthio)butylthio-1,2,5-thiadiazol-4-yl)-1-azabicylo[2.2.2]octane oxalate], the IC50 is 2.8 nM. Turning to `Cc1nnc(SCCCCSc2nsnc2C2CN3CCC2CC3)s1` (centres unmarked) [Compound 107, oxalate], the IC50 is 1 nM. On to `CCCCSc1nsnc1[C@@H]1CN2CCC[C@@H]1C2` [Compound 111, (5S,6S)-6-(3-butylthio-1,2,5-thiadiazol-4-yl)-1-azabicyclo[3.2.1]octane (+) L-tartrate], for which the IC50 turned out to be 1 nM. As to `CCCCSc1nsnc1[C@H]1CN2CCC[C@H]1C2` [Compound 112, (5R,6R)-6-(3-butylthio-1,2,5-thiadiazol-4-yl)-1-azabicyclo[3.2.1]octane (-) D-tartrate], the IC50 came to 0.6 nM. Take `CCCSc1nsnc1[C@H]1CN2CCC[C@H]1C2` [Compound 113, (5R,6R)-6-(3-propylthio-1,2,5-thiadiazol-4-yl)-1-azabicyclo[3.2.1]octane (+) L-tartrate]: the IC50 came to 0.89 nM. Turning to `CCCSc1nsnc1[C@@H]1CN2CCC[C@@H]1C2` [Compound 114, (5S,6S)-6-(3-propylthio-1,2,5-thiadiazol-4-yl)-1-azabicyclo[3.2.1]octane (-) D-tartrate], the IC50 was found to be 0.45 nM. `FC(F)(F)CCCSc1nsnc1[C@@H]1CN2CCC[C@@H]1C2` [Compound 130, (5S,6S)-6-(3-(4,4,4-trifluoro-1-butylthio)-1,2,5-thiadiazol-4-yl)-1-azabicyclo[3.2.1]octane oxalate]: the IC50 came out at 1.8 nM. In the case of `CSc1nsnc1C1CN2CCC1CC2` (centres unmarked) [Compound 131, 3-(3-Methylthio-1,2,5-thiadiazol-4-yl)-1-azabicyclo[2.2.2]octane oxalate], the IC50 amounted to 2.8 nM. In the case of `CC(C)CCCSc1nsnc1[C@H]1CN2CCC[C@H]1C2` [Compound 157, (5R,6R)-6-(3-isohexylthio-1,2,5-thiadiazol-4-yl)-1-azabicyclo[3.2.1]octane (+) L-tartrate], the IC50 is 10 nM. As for `CC(C)CCCSc1nsnc1[C@@H]1CN2CCC[C@@H]1C2` [Compound 158, (5S,6S)-6-(3-isohexylthio-1,2,5-thiadiazol-4-yl)-1-azabicyclo[3.2.1]octane oxalate], the IC50 turned out to be 10 nM. With `FC(F)(F)CCCSc1nsnc1[C@H]1CN2CCC[C@H]1C2` [Compound 167, (5R,6R)-6-(3-(4,4,4-trifluorobutylthio)-1,2,5-thiadiazol-4-yl)-1-azabicyclo[3.2.1]octane oxalate], the IC50 was 0.76 nM.
